Consider 13 compounds from patent US4008331A, “Antidepressant 1,1a,6,10b-tetrahydrodibenzo-[a,e]-cyclopropa-[c]-cyclohepten-6-substitu ted oximes” (E. I. Du Pont de Nemours and Company, priority 1976, dated 1977).

Counter-ions that a name gives are not always drawn. Like-named read-outs stand apart in the source and are kept apart here.

The subject of data set [1] is tetrabenazine-induced depression in mice. Kind of data set: Antagonism of tetrabenazine-induced sedation and depression in mice, orally at 1 hour post-drug. The format is in vivo, Carworth CF1 S female mice. Particulars: for ED50: Mus musculus, po, 1 h. On the procedure:
Relief from ptosis was recorded when exactly 2 seconds after placing the mouse facing the observer, lid closure was less than 50% in both eyes.

The nature of data set [2]: Hydrolytic stability in 0.5M hydrochloric acid at 25° for 20 hrs (NMR of residue). In kind it is physicochemical. On the procedure: For example, a solution of 0.6 g of N-(2-methylaminoethyl)-1,1a,6,10b-tetrahydrodibenzo[a,e]cyclopropa[c]cyclohepten-6-imine in 20 ml of 0.5M hydrochloric acid was stirred at 25° for 20 hrs. The solution was cooled and 10 ml of 10% sodium hydroxide solution was added, and the oil was twice extracted with a solution of 25% methylene chloride in ether. The combined organic extracts were thoroughly washed with saturated brine, dried and solvent removed. The NMR spectrum of the residue (0.5 g) indicated about 40% decomposition of the imine to the ketone occurred.
This stability to hydrolysis is advantageous in preparation, storage, and use of pharmaceutical dosage forms.

[3] abbreviates: mice, oral, 1 hour post-drug, tetrabenazine 32 mg/kg intraperitoneally 30 minutes after compound, read-out: ED50 for prevention of exploratory loss.
Setting [4] is: mice, oral, 1 hour post-drug, tetrabenazine 32 mg/kg intraperitoneally 30 minutes after compound, read-out: ED50 for prevention of ptosis.
Where [5] appears, read: mice, oral, 1 hour post-drug, tetrabenazine 32 mg/kg intraperitoneally 30 minutes after compound, hydrochloride, 60 min.
Where [6] appears, read: mice, oral, 1 hour post-drug, tetrabenazine 32 mg/kg intraperitoneally 30 minutes after compound, 60 min.

`c1ccc2c(c1)C(=NOCCN1CCCC1)c1ccccc1C1CC21` (centres unmarked): the values for the ED50 in data set [1] (setting [3]) and in data set [1] (setting [4]) were 10.4 mg/kg and 4.8 mg/kg, respectively.
For `c1ccc2c(c1)C(=NOCCN1CCOCC1)c1ccccc1C1CC21` (centres unmarked), in that order: 3 mg/kg and 1 mg/kg.
On the same counts, the results for `c1ccc2c(c1)C(=NOCCN1CCCCC1)c1ccccc1C1CC21` (centres unmarked) are 4.7 mg/kg and 1.7 mg/kg.
On the same counts, the results for `CN(C)CCCON=C1c2ccccc2C2CC2c2ccccc21` (centres unmarked) [H CH2 CH2 CH2 N(CH3)2, 1,1a,6,10b-Tetrahydrodibenzo[a,e]cyclopropa[c]cyclohepten-6-one 0-[3-(dimethylamino)propyl]oxime] are 15.6 mg/kg and 9 mg/kg.
For the compound `CN(C)CCON=C1c2ccccc2C2CC2c2ccccc21` (centres unmarked) [H CH2 CH2 N(CH3)2 . HCl, 1,1a,6,10b-Tetrahydrodibenzo[a,e]cyclopropa[c]cyclohepten-6-one 0-[2-(dimethylamino)ethyl]oxime hydrochloride], in data set [1] (setting [5]), the “ED50 for prevention of exploratory loss” value is listed as 1.4 mg/kg and the “ED50 for prevention of ptosis” value was found to be 0.5 mg/kg.
Take `CN(C)CCON=C1c2ccccc2C2CC2c2ccccc21` (centres unmarked) [H CH2 CH2 N(CH3)2, 1,1a,6,10b-Tetrahydrodibenzo[a,e]cyclopropa[c]cyclohepten-6-one 0-[2-(dimethylamino)ethyl]oxime]: the ED50 in data set [1] (setting [3]) is 2.3 mg/kg; in data set [1] (setting [4]) it was 0.4 mg/kg.
Regarding `NCCON=C1c2ccccc2C2CC2c2ccccc21` (centres unmarked) [H CH2 CH2 NH2 . HCl], in data set [1] (setting [4]), the ED50 is 0.09 mg/kg. Besides, in data set [1] (setting [6]), the “ED50 for prevention of exploratory loss” value came out at 0.10 mg/kg.
Regarding `NCCON=C1c2ccccc2C2CC2c2ccccc21` (centres unmarked) [H CH2 CH2 NH2, 1,1a,6,10b-Tetrahydrodibenzo[a,e]cyclopropa[c]cyclohepten-6-one 0-(2-aminoethyl)oxime], the “ED50 for prevention of ptosis” value in data set [1] (mice, oral, 1 hour post-drug, tetrabenazine 32 mg/kg intraperitoneally 30 minutes after compound) is 0.09 mg/kg. Also, the “ED50 for prevention of exploratory loss” value in data set [1] (setting [6]) was determined as 0.25 mg/kg.
As for `CNCCON=C1c2ccccc2C2CC2c2ccccc21` (centres unmarked) [H CH2 CH2 NHCH3, 1,1a,6,10b-Tetrahydrodibenzo[a,e]cyclopropa[c]cyclohepten-6-one 0-[2-(methylamino)ethyl]oxime], the “decomposition (in words)” value in data set [2] (same procedure: 0.5M hydrochloric acid) is reported as “no detectable decomposition”. The ED50 came out at 1.9 mg/kg in data set [1] (setting [3]) and 0.33 mg/kg in data set [1] (setting [4]).
As for `CC(C)N(CCON=C1c2ccccc2C2CC2c2ccccc21)C(C)C` (centres unmarked) [H CH2 CH2 N[CH(CH3)2]2, 1,1a,6,10b-Tetrahydrodibenzo[a,e]cyclopropa[c]cyclohepten-6-one 0-[2-(diisopropylamino)ethyl]oxime], the ED50 was 5.2 mg/kg in data set [1] (setting [3]) and 3.3 mg/kg in data set [1] (setting [4]).
Take `CNCCN=C1c2ccccc2C2CC2c2ccccc21` (centres unmarked) [N-(2-methylaminoethyl)-1,1a,6,10b-tetrahydrodibenzo[a,e]cyclopropa[c]cyclohepten-6-imine, reference compound]: the degraded at 20 h in data set [2] (0.5 m hcl, 0.6 g in 20 ml of 0.5M hydrochloric acid, by NMR, read-out: decomposition of the imine to the ketone) is around 40%.
As to `CN(C)CCC=C1c2ccccc2CCc2ccccc21` [amitriptyline, reference compound], the ED50 in data set [1] (setting [3]) came out at 4.7 mg/kg; in data set [1] (setting [4]), 1.7 mg/kg.
On to `CN(C)CCCN1c2ccccc2CCc2ccccc21` [imipramine, reference compound], for which the ED50 in data set [1] (read-out: ED50 for prevention of exploratory loss) came out at 3 mg/kg; in data set [1] (read-out: ED50 for prevention of ptosis), 2.5 mg/kg.

One may read the ED50 as the dose that gives a 50% effect, or the effect in half of the subjects.
